Assay results published in the NIST ThermoML archive (doi:10.1021/je034213q).
Numbers after ± are expanded uncertainties.

Details: Gas

FC(F)C(F)(F)F [pentafluoroethane]
Details | speed of sound [m/s]
277.16 K, 20.94 kPa | 144.94 ± 0.2
277.16 K, 40.92 kPa | 144.49 ± 0.2
277.16 K, 60.65 kPa | 144.05 ± 0.2
277.16 K, 80.97 kPa | 143.59 ± 0.2
277.16 K, 101.09 kPa | 143.13 ± 0.2
277.16 K, 121.01 kPa | 142.67 ± 0.2
277.16 K, 141.08 kPa | 142.2 ± 0.2
277.16 K, 161.07 kPa | 141.73 ± 0.2
277.16 K, 180.84 kPa | 141.26 ± 0.19
277.16 K, 198.8 kPa | 140.83 ± 0.19
303.14 K, 10.51 kPa | 151.5 ± 0.2
303.14 K, 20.76 kPa | 151.31 ± 0.2
303.14 K, 40.75 kPa | 150.97 ± 0.2
303.14 K, 60.79 kPa | 150.62 ± 0.2
303.14 K, 80.27 kPa | 150.28 ± 0.2
303.14 K, 100.78 kPa | 149.93 ± 0.2
303.14 K, 120.91 kPa | 149.57 ± 0.2
303.14 K, 140.84 kPa | 149.22 ± 0.2
303.14 K, 160.84 kPa | 148.87 ± 0.2
303.14 K, 180.99 kPa | 148.5 ± 0.2
303.14 K, 200.32 kPa | 148.16 ± 0.2
303.14 K, 300.92 kPa | 146.32 ± 0.2
303.14 K, 398.68 kPa | 144.47 ± 0.2
303.14 K, 465.23 kPa | 143.19 ± 0.2
313.15 K, 10.5 kPa | 153.84 ± 0.2
313.15 K, 20.68 kPa | 153.68 ± 0.2
313.15 K, 40.59 kPa | 153.37 ± 0.2
313.15 K, 60.28 kPa | 153.06 ± 0.2
313.15 K, 80.59 kPa | 152.74 ± 0.2
313.15 K, 100.57 kPa | 152.43 ± 0.2
313.15 K, 120.77 kPa | 152.11 ± 0.2
313.15 K, 140.78 kPa | 151.79 ± 0.2
313.15 K, 160.71 kPa | 151.47 ± 0.2
313.15 K, 180.78 kPa | 151.14 ± 0.2
313.15 K, 200.47 kPa | 150.82 ± 0.2
313.15 K, 300.67 kPa | 149.18 ± 0.2
313.15 K, 400.7 kPa | 147.49 ± 0.2
313.15 K, 480.34 kPa | 146.12 ± 0.2
323.14 K, 10.7 kPa | 156.16 ± 0.21
323.14 K, 20.42 kPa | 156.02 ± 0.21
323.14 K, 40.64 kPa | 155.73 ± 0.21
323.14 K, 60.8 kPa | 155.44 ± 0.21
323.14 K, 80.84 kPa | 155.16 ± 0.21
323.14 K, 100.74 kPa | 154.87 ± 0.21
323.14 K, 120.86 kPa | 154.58 ± 0.21
323.14 K, 140.92 kPa | 154.29 ± 0.2
323.14 K, 160.95 kPa | 154 ± 0.2
323.14 K, 180.33 kPa | 153.71 ± 0.2
323.14 K, 200.71 kPa | 153.41 ± 0.2
323.14 K, 300.75 kPa | 151.93 ± 0.2
323.14 K, 400.83 kPa | 150.41 ± 0.2
323.14 K, 501.38 kPa | 148.85 ± 0.2
343.13 K, 40.76 kPa | 160.33 ± 0.21
343.13 K, 60.62 kPa | 160.09 ± 0.21
343.13 K, 80.21 kPa | 159.86 ± 0.21
343.13 K, 100.97 kPa | 159.61 ± 0.21
343.13 K, 120.73 kPa | 159.37 ± 0.21
343.13 K, 140.89 kPa | 159.13 ± 0.21
343.13 K, 160.51 kPa | 158.89 ± 0.21
343.13 K, 180.9 kPa | 158.65 ± 0.21
343.13 K, 197.5 kPa | 158.44 ± 0.21
343.13 K, 300.29 kPa | 157.19 ± 0.21
343.13 K, 400.48 kPa | 155.94 ± 0.21
343.13 K, 500.26 kPa | 154.68 ± 0.21
343.13 K, 600.3 kPa | 153.41 ± 0.2
343.14 K, 20.77 kPa | 160.58 ± 0.21
343.14 K, 40.77 kPa | 160.34 ± 0.21
343.14 K, 59.94 kPa | 160.11 ± 0.21
343.14 K, 80.48 kPa | 159.86 ± 0.21
343.14 K, 100.55 kPa | 159.62 ± 0.21
343.14 K, 120.9 kPa | 159.38 ± 0.21
343.14 K, 140.63 kPa | 159.14 ± 0.21
343.14 K, 160.64 kPa | 158.9 ± 0.21
343.14 K, 180.84 kPa | 158.65 ± 0.21
343.14 K, 200.46 kPa | 158.41 ± 0.21
343.14 K, 300.55 kPa | 157.19 ± 0.21
343.14 K, 399.77 kPa | 155.96 ± 0.21
343.14 K, 501.32 kPa | 154.68 ± 0.21
